# Test results published in paper PMC3006207, “Phosphorylation-Dependent Protein Interaction with Trypanosoma brucei 14-3-3 Proteins that Display Atypical Target Recognition” (PLoS ONE, 2010).
# Square brackets hold non-standard residues; d marks the D form. Ends that are not written are not given here. Peptide text beside a SMILES is read from it. * marks the point of attachment. Biotin = O=C1N[C@H]2[C@H](CS[C@H]2CCCCC(=O)*)N1; pS = N[C@@H](COP(=O)(O)O)C(=O)O
# B1: c-Raf-derived phosphopeptide pSRaf259 (biotin-MAGGGRQRSTpSTPN) (peptide)
# peptide: Biotin-MAGGGRQRST[pS]TPN
# notes: spacer before the c-Raf stretch; human c-Raf 1 stretch around Ser-259; also called mode 1 peptide; mode 1 phosphopeptide; source: synthetic peptide
# How the values were obtained:
# [1] = tested on: heterodimeric T. brucei 14-3-3I+II; experiment: NC-filter binding assay, heterodimeric T. brucei 14-3-3; set-up: species or system Trypanosoma brucei; conditions: biotinylated peptide + streptavidine on nitrocellulose filter, GST-14-3-3 detected with α-GST antibodies
# Description: (§1) Five µl of 1 mM biotinylated peptides, purchased from Scrum (Japan) were mixed with 15 µl of streptavidine (1 mg/ml) in the presence of 0.1% Tween20, spotted on NC-filters and dried. Filters were washed with TTBS, blocked with Protein-Free Blocking Buffer (Pierce), and then incubated with GST-14-3-3 proteins in TTBS containing 20% Protein-Free Blocking Buffer and 1 mM DTT. The filters were extensively washed four times with TTBS, and detected with anti-GST antibodies.
# [2] = tested on: proteins of HeLa and T. brucei PCF cell lysates; experiment: Far-Western blot analysis of HeLa and PCF cell lysates with 14-3-3 probes; format: binding, HeLa (human) and Trypanosoma brucei; conditions: for effect on interacting proteins, CalA (−) vs (+), with or without calcium: 1 mM CaCl2, T. brucei 14-3-3 probe 2 µg/ml, representative of three independent experiments
# Description: Far-Western blot analysis of Ser/Thr phosphatase inhibitor Calyculin A (CalA) treated + and/or untreated – of HeLa and/or 29-13 PCF cell lysates was performed. HeLa cells and/or 29-13 PCF cells were lysed with SDS-gel loading buffer supplemented with 2-mercaptoethanol (Bio-Rad, Hercules, CA) and sonicated. The cell lysates equivalent to 5×10^5 HeLa cells and 1×10^7 29-13 PCF cells were applied on 4–20% SDS-PAGE (Daiichi, Japan) and transferred to nitrocellulose filters (Millipore, Bedford, MA). The filters were denatured with denaturation buffer (6M guanidine-HCl, 50 mM Tris-HCl, pH 8.0, and 1 mM dithiothreitol [DTT]). The denaturation buffer was then diluted with an equal volume of 50 mM Tris-HCl, pH 8.0 with 1 mM DTT. After 15 min of denaturation, the filters were then treated with 2x diluted denaturation buffer. The same step was repeatedly carried out eight times and then renatured filters were washed twice with TTBS (50 mM Tris-HCl, pH 7.4, 0.1% Tween 20, and 150 mM NaCl). The resultant filters were blocked with TTBS containing 4% skim milk plus 1 mM DTT. Then the filters were incubated overnight with 1 or 2 µg/ml of GST-14-3-3 probes in 4% skim milk containing the blocking solution at 4°C. The filters were washed three times with TTBS and incubated with anti-GST polyclonal antibodies (Sigma) followed by horseradish peroxidase (HRP)-labeled anti-rabbit goat IgG (Jackson Immunoresearch Laboratories, West Grove, PA).
# [3] = tested on: endogenous 14-3-3I (T. brucei PCF lysates); experiment: Peptide pull-down assay, endogenous 14-3-3I; format: binding, Trypanosoma brucei
# Description: (§2) Ten µl of streptavidin agarose beads (Sigma Chemical Co., St. Louis, MO) were incubated with 10 µl of 100 µM of pRaf 259 (biotin- MAGGGRQRSTSTPN) and/or pSRaf 259 at room temperature for 30 min and the beads were washed three times with lysis buffer (150 mM NaCl, 10 mM HEPES, pH 7.5, 0.2% NP-40, 50 mM NaF, 1 mM Na3VO4 and Roche protease inhibitor tablets). Next, 1×10^9 cells of T. brucei PCF were lysed with 2 ml of the lysis buffer on ice. Insoluble proteins were pelleted and 1 ml of the supernatant was used for each peptide pull-down assay. The lysates were incubated with each bead, rotated at 4°C for 2 hrs and washed with the lysis buffer three times. Twenty µl of 2xSDS Gel loading buffer with 2-mercaptoethanol were added to the washed beads, and 5 µl of eluates were run on 10–20% SDS-PAGE. The blots were detected with α-I and/or α–II Abs as described previously.
# [4] = tested on: endogenous 14-3-3II (T. brucei PCF lysates); experiment: Peptide pull-down assay, endogenous 14-3-3II; format: binding, Trypanosoma brucei
# Description: as §2
# human 14-3-3ζ = experiment: NC-filter binding assay, human 14-3-3ζ; conditions: biotinylated peptide + streptavidine on nitrocellulose filter; GST-14-3-3ζ detected with α-GST antibodies
# Description: as §1
# human 14-3-3τ = biological target: T1, human 14-3-3τ (Homo sapiens, UniProt P27348); experiment: Surface plasmon resonance (BIAcore), phosphopeptide vs 14-3-3τ; format: binding; conditions: 14-3-3τ; BIAcore 2000, BIAevaluation 3.0; biotinylated peptide on streptavidin chip (220 RU); HBS-EP buffer, 20 µl/min; read-out: estimated Kd of the mode 1 phosphopeptide
# T1 construct: made in house
# T1 sequence (P27348 1-245): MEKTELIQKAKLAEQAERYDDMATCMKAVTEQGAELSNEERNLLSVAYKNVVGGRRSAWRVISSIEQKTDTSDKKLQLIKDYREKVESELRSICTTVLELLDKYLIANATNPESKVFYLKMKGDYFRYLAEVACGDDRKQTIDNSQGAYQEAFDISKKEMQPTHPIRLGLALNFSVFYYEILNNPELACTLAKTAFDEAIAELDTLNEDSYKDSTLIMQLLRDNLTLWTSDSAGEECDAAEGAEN
# Description: The surface plasmon resonance measurement was carried out using BIAcore 2000. A resonance unit value of 220 of biotinylated phosphopeptide pSRaf 259 (biotin-MAGGGRQRSTpSTPN) (mode 1 peptide) was coupled to a streptavidin-coated sensor chip (SA5, BIAcore). In the next step, 200 nM each of purified GST-14-3-3I, GST-14-3-3II, and GST–14-3-3τ, or 500 nM each of MBP-14-3-3I, MBP-14-3-3II, and MBP-14-3-3τ in HBS-EP buffer (BIAcore) was injected at a flow rate of 20 µl/min. A resonance unit value of 296 of biotinylated mode 2 peptide (biotin-MAGGGRLYHpSLP) was also coupled to SA5 and 200 nM each of GST-14-3-3I, GST-14-3-3II and GST-14-3-3τ in HBS-EP buffer, and was injected in the same manner.
# [5] = biological target: T2, GST-14-3-3τ (human 14-3-3τ fused to glutathione S-transferase) (human, UniProt P27348 1-245); experiment: SPR; conditions: both partners purified
# T2 construct: human 14-3-3 tau; also called GST-τ; source: purified
# T2 sequence (looked up): T1 sequence (P27348 1-245)
# [6] = biological target: T3, GST-14-3-3ζ (human 14-3-3ζ) (human, UniProt P63104 1-245); experiment: far-Western, overlay or dot blot; conditions: both partners purified
# T3 construct: human 14-3-3 zeta
# T3 sequence (looked up): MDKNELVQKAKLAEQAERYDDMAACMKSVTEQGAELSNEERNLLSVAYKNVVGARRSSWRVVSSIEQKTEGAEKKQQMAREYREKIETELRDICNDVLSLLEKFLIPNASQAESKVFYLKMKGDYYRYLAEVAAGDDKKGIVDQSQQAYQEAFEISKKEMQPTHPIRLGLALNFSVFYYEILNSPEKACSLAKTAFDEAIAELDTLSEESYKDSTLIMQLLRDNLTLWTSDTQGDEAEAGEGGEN
# MBP-14-3-3τ = biological target: T4, MBP-14-3-3τ (human, UniProt P27348 1-245); experiment: SPR; BIAcore 2000; biotinylated phosphopeptide coupled to a streptavidin-coated chip (220 RU mode 1, 296 RU mode 2); 200 nM GST-14-3-3 or 500 nM MBP-14-3-3 proteins injected in HBS-EP at 20 µl/min; Kd by BIAevaluation 3.0; conditions: both partners purified
# T4 construct: human 14-3-3 tau; source: purified
# T4 sequence (looked up): T1 sequence (P27348 1-245)
# [7] = biological target: T3, GST-14-3-3ζ (human 14-3-3ζ); experiment: far-Western, overlay or dot blot; NC-filter binding assay: biotinylated peptides (1 mM) mixed with streptavidin, spotted on nitrocellulose and dried; incubated with GST-14-3-3 proteins in TTBS with 20% Protein-Free Blocking Buffer and 1 mM DTT; anti-GST detection; conditions: both partners purified
molecule,measurement,setting,value
-WLTRSRSLW [PP2c],interaction with spotted phosphopeptide,[1],failed to show the interactions
HVSGLKRRRpSV [p31-SAP part of …pSV],interaction with spotted phosphopeptide,[1],high-affinity
[Ca+2].[Cl-].[Cl-] [CaCl2],"effect on interacting proteins, CalA (−) vs (+), with or without calcium",[2],no major difference
"Biotin-MAGGGRQRSTSTPN [pRaf259, c-Raf-derived peptide in which 259Ser is unphosphorylated]",peptide pull-down interaction,"[3]; T. brucei PCF lysates, 5×10^8 cells/pull-down, Western blot α-I",did not interact
same,recovery of 14-3-3I by peptide-conjugated beads,[3]; longer exposure,No 14-3-3I was recovered
same,peptide pull-down interaction,"[4]; T. brucei PCF lysates, 5×10^8 cells/pull-down, Western blot α-II",did not interact
same,"peptide pull-down interaction, longer exposure","[4]; T. brucei PCF lysates, Western blot α-II, longer exposure",weak interaction
same,"amount of captured 14-3-3II, phospho- vs non-phospho-peptide beads",[4]; longer exposure,not different between phospho-(pSRaf259) and non-phospho-(pRaf259) peptide-conjugated beads
COC[C@@H]([C@H](O)[C@H](O)C(=O)NCC[C@H](C)c1nc(/C=C/C[C@@H]2O[C@]3(C[C@@H](O)[C@@H]2C)O[C@H]([C@H](C[C@H](O)[C@H](C)[C@H](O)[C@H](C)/C=C(C)/C(C)=C/C=C/C(C)=C\C#N)OC)[C@H](OP(=O)(O)O)C3(C)C)co1)N(C)C [calyculin A],"effect on interacting proteins, CalA (−) vs (+), with or without calcium",[2],no major difference
same,number and amounts of the 14-3-3τ-interacting protein upon treatment,"[2]; PCF and HeLa cells, probe GST-τ",increased
"MGGGLTRSRpSL [PP2c (-W), mode 3 phosphopeptide derived from PP2c-W]",interaction with spotted phosphopeptide,[1],failed to show the interactions
same,interaction with spotted phosphopeptide,[1]; listed as MGGGLTRSRpSL,not detected
same,interaction with spotted phosphopeptide,human 14-3-3ζ,interacts with both phosphopeptides but with the preferential binding to the mode 3 peptide derived from p31-SAP
"-LIEGRKQTVG [ACS, putative mode 3 synthetic phosphopeptide derived from ACS (acetyl-CoA synthetase, putative)]",interaction with spotted phosphopeptide,[1],would not interact
same,interaction with spotted phosphopeptide,human 14-3-3ζ,would not interact
CSCC[C@H](NC(=O)CCCC[C@@H]1SC[C@@H]2NC(=O)N[C@@H]21)C(=O)N[C@@H](C)C(=O)NCC(=O)NCC(=O)NCC(=O)N[C@@H](CCCNC(=N)N)C(=O)N[C@@H](CCC(N)=O)C(=O)N[C@@H](CCCNC(=N)N)C(=O)N[C@@H](CO)C(=O)N[C@H](C(=O)N[C@@H](COP(=O)(O)O)C(=O)N[C@H](C(=O)N1CCC[C@H]1C(=O)N[C@@H](CC(N)=O)C(=O)O)[C@@H](C)O)[C@@H](C)O [pSRaf259] (Biotin-MAGGGRQRST[pS]TPN-OH),Kd,human 14-3-3τ,220 nM
"Biotin-MAGGGRLYH[pS]LP (not fully specified, also called mode 2 peptide) [mode 2 phosphopeptide (biotin-[residues removed]pSLP)]",binding result,[5],binds
same,binding result,[6],binds
B1,binding result,MBP-14-3-3τ,binds
same,binding result,[7],binds
